The values that follow come from ChEMBL document CHEMBL5137125, “Echiumin E, an Aryl Dihydronaphthalene Lignan from the Australian Invasive Plant Paterson's Curse (Echium plantagineum)” (J Nat Prod, 2022).

Series [1] relates to SH-SY5Y. In words: Cytotoxicity against human SH-SY5Y cells assessed as inhibition of cell growth and measured after 72 hrs resazurin reduction assay. Format: functional, cell-based. (Resazurin is reduced to fluorescent resorufin, in cell work by metabolically active cells.)
The test system of another series is PC-3. In words: Cytotoxicity against human PC-3 cells assessed as inhibition of cell growth and measured after 72 hrs resazurin reduction assay. The following applies: PC-3, 72 h. Format: functional, cell-based.
A short description of series [2]: Cytotoxicity against human WPMY-1 cells assessed as inhibition of cell growth and measured after 72 hrs resazurin reduction assay. The series is classed as toxicity, cell-based. The conditions noted are these: for IC50 at 72 h: WPMY-1 cells.
For the next series, the system named is HeLa. Briefly: Cytotoxicity against human HeLa cells assessed as inhibition of cell growth and measured after 72 hrs resazurin reduction assay. The series is classed as functional, cell-based.
The test system of series [3] is SH-SY5Y. Briefly: Cytotoxicity against human SH-SY5Y cells assessed as inhibition of cell growth and measured upto 72 hrs by clonogenic assay. The series is classed as functional, cell-based.

For orientation: IC50 means the concentration that inhibits the measured activity by half. For the compound `O=C(OC(Cc1ccc(O)c(O)c1)C(=O)O)C1=Cc2cc(O)c(O)cc2[C@H](c2ccc(O)c(O)c2)[C@H]1C(=O)O[C@@H](Cc1ccc(O)c(O)c1)C(=O)O` (some centres undefined), the IC50 with SH-SY5Y [1] and with PC-3 was greater than 10 µM in each case. Also, in series [2], the IC50 at 72 h was greater than 10 µM.
Consider `O=C(O[C@H](Cc1ccc(O)c(O)c1)C(=O)O)c1cc(-c2ccc(O)c(O)c2)c2cc(O)c(O)cc2c1`, for which the IC50 in the series with SH-SY5Y [1] and with PC-3 was greater than 10 µM in each case. Moreover, the IC50 at 72 h in series [2] is greater than 10 µM.
For the compound `COc1cccc2c1C(=O)c1c(O)c3c(c(O)c1C2=O)C[C@@](O)(C(=O)CO)C[C@@H]3O[C@H]1C[C@H](N)[C@H](O)[C@H](C)O1` [DOXORUBICIN], the IC50 in the series with SH-SY5Y [1] came out at 0.04 µM; in the series on PC-3, 0.01 µM; in the series on HeLa it was 1.96 µM. Besides, the IC50 at 72 h in series [2] worked out at 0.02 µM.
On to `CC(=O)O[C@@]12CO[C@@H]1C[C@H](O)[C@@]1(C)C(=O)[C@H](O)C3=C(C)[C@@H](OC(=O)[C@H](O)[C@@H](NC(=O)OC(C)(C)C)c4ccccc4)C[C@@](O)([C@@H](OC(=O)c4ccccc4)[C@H]21)C3(C)C` [DOCETAXEL ANHYDROUS], for which the results for the IC50 in the series on SH-SY5Y [3] and with PC-3 were 0.0018 µM and 0.0006 µM, respectively. Besides, in series [2], the IC50 at 72 h was 0.21 µM.
As to `COc1cc([C@H]2c3cc(O)c(OC)cc3C=C3C(=O)OC[C@H]4O[C@@](CO)(O[C@H]5O[C@H](COC(=O)/C=C/c6ccc(O[C@@H]7O[C@@H](C)[C@H](O)[C@@H](O)[C@H]7O)cc6)[C@@H](O)[C@H](O)[C@H]5O)[C@@H](OC(=O)[C@@H]32)[C@@H]4O)ccc1O`, the IC50 in the series with SH-SY5Y [1] and in the series with PC-3 was greater than 10 µM in each case. Besides, in series [2] (wpmy-1, 72 h, time 72 hrs), the Activity entry was “Non-Toxic”.
In the case of `O=C(/C=C/c1ccc(O)c(O)c1)O[C@H](Cc1ccc(O)c(O)c1)C(=O)O` [ROSMARINIC ACID], the IC50 in the series with SH-SY5Y [1] and in the series on PC-3 was greater than 10 µM throughout. Also, the half-maximal inhibitory concentration (IC50) at 72 h in series [2] is greater than 10 µM.
